Laboratory results published in patent US20020049190A1, “Pharmaceutical compositions comprising metal complexes” (priority 1999, published 2002).

Columns and labels:
[1] = In vitro test of NO uptake: manometer pressure and IR spectrum of freeze-dried product; type: binding; conditions: aqueous solution under argon, 20° C.-24° C., NO gas in headspace, one hour
Protocol: The resulting solution was placed in a three-necked pear-shaped flask and stirred by a magnetic stirrer at constant speed of 1000 rpm, at a constant temperature in the range 20° C.-24° C. A manometer was attached to the flask, and purified, dried nitric oxide gas (known volume in the range 3-5cm^3) was introduced via a septum, using a gas syringe, at atmospheric pressure into the headspace above the reaction solution. The pressure within the flask was recorded periodically over a period of one hour.
A control experiment was carried out according to the above but without any complex present.
On completion of each in vitro test, the reaction solution was freeze-dried. An infrared spectrum of the freeze-dried product provided information on metal-NO bond formation.

rat tail artery = test: Ex vivo test: perfused pre-contracted rat tail artery, vasoconstriction; conditions: for Vasoconstriction on application of test compound: 10 μM and 100 μM (Example 26 also 1000 μM); for % Vasoconstriction: artery pre-contracted with 6.5 μM phenylephrine; for Reversibility of the vasoconstriction: washout with Krebs solution
Source text: In the ex vivo tests, segments of rat tail artery (0.8-1.5 cm) were dissected free from normotensive adult Wistar rats. The arteries were internally perfused with Krebs solution (mM: NaCl 118, KCl 4.7, NaHCO3 25, NaH2PO4 1.15, CaCl22.5, MgCl2 1.1, glucose 5.6 and gassed with 95% O2/5% CO2 to maintain a pH of 7.4) in a constant flow perfusion apparatus. A differential pressure transducer located upstream of the vessel detected changes in back pressure. The rat tail artery preparation was pre-contracted with 6.5 μM phenylephrine to give a physiologically normal pressure of 100-120 mm Hg. The pre-contracted vessels were then perfused with the test compound. The arteries were perfused with Krebs solution between applications of test compound to wash out the test compound.
Pressure changes in the system served to indicate artery vasoconstriction. The vasoconstriction is a direct result of the removal of endogenous nitric oxide (edrf) from the endothelial cells of the rat tail artery.

[2] = test system: murine (RAW264) macrophage cell lines; test: In vitro cell culture test: available nitric oxide (nitrite+nitrate) in activated macrophages; type: cell-based; conditions: LPS + interferon γ activated RAW264, 18 hours
Protocol: Concurrently, test compounds made up in MEM were added at non-cytotoxic concentrations. Control cells as above, which were activated to produce nitric oxide as above, but to which no test compound was added, were used as a measure of the amouint of nitric oxide produced by the cells during the tests. (See […]. Powell, O. J. Vaughan, G. R. Henderson, B. A. Murrer, […]. Bisland, […], Ruthenium complexes as nitric oxide scavengers: a potential therapeutic approach to nitric oxide-mediated diseases, Br. J Pharmacol., 1997, 122, 1441-1449.) Background nitric oxide was assessed by measurement of nitrate and nitrite in cells which were not activated. Cell viability was confirmed by Trypan blue dye exclusion at the end of the incubation period. Nitric oxide was determined by measurement of nitrate and nitrite in the cell supernatant. These anions are the stable end-products of reactions of NO in solution. Such reactions may or may not be catalysed in biological systems. The sum of nitrite and nitrate concentrations gives the total NO production. […] Nitrate was determined by reducing nitrate to nitrite with a bacterial nitrate reductase from Pseudomonas oleovorans and then measuring nitrite with the Griess reaction. In the absence of test compounds nitrite concentration plus nitrate concentration is equal to total nitric oxide production. The effect of test compounds on available nitric oxide (measured as nitrite+nitrate) was determined. The reduction in available nitric oxide compared with the control level may be taken as an indication of the degree of binding of NO by the test compounds.

[3] = test system: rat P22 carcinosarcoma grown in BD-IX rats; test: Tumour growth, vascularisation and plasma nitrite/nitrate in rats bearing P22 carcinosarcoma; type: in vivo; conditions: for Nitrite/nitrate levels at Day 28 / Tumour vascularisation (MVD), Mean Chalkey score: 50 mg/kg daily i.p. Day 10-Day 28; for Nitrite/nitrate levels at Day 28: Griess assay, untreated control 7.75; for Tumour vascularisation (MVD), Mean Chalkey score: anti-CD31 immunostaining, untreated control 13.0; for Tumour growth: 50 mg/kg daily intraperitoneal, Day 10-Day 28, male BD-IX rats
Protocol: The effect of AMD6245 (Example 113) and AMD6221 (Example 8) on tumour growth was assessed using the rat P22 carcinosarcoma grown in BD-IX rats (Kennovin et al., in Biology of Nitric Oxide, Vol. 4, (S. Moncada, M. Feelisch, R. Busse, and A. E. Higgs, eds.), Portland Press, London, 1994, pp. 473-479). The tumour was implanted subcutaneously on the dorsal surface of male BD-IX rats on Day 0. Tumour growth was measured daily using calipers and tumour volume calculated from the equation […] where X=the short tumour axis and Y=the long tumour axis. Tumours were measurable by Day 10. AMD6245 and AMD6221 were administered daily by intraperitoneal injection at a dose of 50 mg/kg from Day 10-Day 28. Tumour vascularisation (Microvascular Density or MVD) was measured by Chalkley point counting after immunostaining with anti-CD31 antibody (Vermeulen et al., Eur. J. Cancer, 32A, 2474-2484, (1996)). Nitrite/nitrate was measured by the Griess assay (see Table 4). These anions are the stable end products of NO in solution. Nitrate was first reduced to nitrite by […]. The sum of nitrite and nitrate gives the total NO production.

| Compound | Pressure decrease indicating binding of NO to the metal compound [1] | Vasoconstriction on application of test compound (rat tail artery) | % Vasoconstriction (rat tail artery; 10 μM) [%] | % Vasoconstriction (rat tail artery; 100 μM) [%] | Reversibility of the vasoconstriction (rat tail artery) | % Decrease of Available Nitric Oxide ([2]; 100 μM test compound) [%] | further results |
| --- | --- | --- | --- | --- | --- | --- | --- |
| K[Ru(hnta)2]½H2O [Example 7] | pressure decrease indicated binding of NO | – | – | – | – | – | – |
| [Ru(NH3)5Cl]Cl2 [Example 15] | – | dose-dependent vasoconstriction | 77 | 86 | reversible by washout | 86 | – |
| O.O=C([O-])CN(CCN(CC(=O)O)CC(=O)O)CC(=O)[O-].[Cl-].[Cl-].[K+].[Ru+3] [Example 6, K[Ru(H2edta)Cl2]H2O] | pressure decrease indicated binding of NO | – | – | – | – | 77 | – |
| K[Ru(H2dtpa)Cl]H2O [Example 8] | pressure decrease indicated binding of NO | – | – | – | – | – | Nitrite/nitrate levels at Day 28 [3]: 5.09 μmoles/litre plasma; Tumour vascularisation (MVD), Mean Chalkey score [3]: 5.3; Tumour growth [3]: inhibited the growth |
| O.O.O=C([O-])CN(CCN(CC(=O)[O-])CC(=O)O)CC(=O)[O-].[Cl-].[K+].[Ru+3] [Example 1, K[Ru(hedta)Cl]2H2O] | pressure decrease indicated binding of NO | – | – | – | – | 75 | % Decrease of Available Nitric Oxide ([2]; 25 μM test compound): 12%; % Decrease of Available Nitric Oxide ([2]; 50 μM test compound): 23% |
| O.O=C([O-])c1cccc(C(=O)[O-])n1.O=C([O-])c1cccc(C(=O)[O-])n1.[K+].[Ru+3] [Example 4, K[Ru(dipic)2]H2O] | pressure decrease indicated binding of NO | – | – | – | – | – | – |
| [Ru(Hedta)]H2O [AMD6245] | – | – | – | – | – | – | Nitrite/nitrate levels at Day 28 [3]: 3.88 μmoles/litre plasma; Tumour vascularisation (MVD), Mean Chalkey score [3]: 3.0; Tumour growth [3]: inhibited the growth |
| Cc1occc(=O)c1[O][Ru]([O]c1c(C)occc1=O)[O]c1c(C)occc1=O [Example 26, [Ru(maltol)3]] | – | dose-dependent vasoconstriction | 10 | 18 | reversible by washout | 71 | % Vasoconstriction (rat tail artery; 1000 μM): 25% |
| CC(=O)[O-].CC(=O)[O-].CC(=O)[O-].CC(=O)[O-].[Cl-].[Ru+3].[Ru+3] [Example 14, [Ru2(OAc)4]Cl] | – | dose-dependent vasoconstriction | 11 | 40 | reversible by washout | 47 | – |
| CC(=O)C=C(C)[O-].O=C([O-])CN(CCN(CC(=O)O)CC(=O)O)CC(=O)[O-].[Ru+3] [Example 2, [Ru(H2edta)(acac)]] | – | dose-dependent vasoconstriction | 20 | 69 | reversible by washout | 82 | – |
| O.O=C([O-])CN(CCO)CCN(CC(=O)[O-])CC(=O)[O-].[Cl-].[K+].[Ru+3] [Example 3, K[Ru(hedtra)Cl]H2O] | pressure decrease indicated binding of NO | dose-dependent vasoconstriction | 17 | 59 | reversible by washout | 42 | – |
